Data taken from US7189736B2, “Prodrugs of imidazopyridine derivatives” (Altana Pharma AG, priority 2000, dated 2007).

Tested on: acid secretion of the perfused rat stomach stimulated by pentagastrin
Experiment: Secretion-inhibiting action on perfused rat stomach (pentagastrin-stimulated acid secretion)
Format: in vivo
Details: Rattus norvegicus, iv, anesthetized CD rats, female, dose 3 μmol/kg i.v.
Text: Testing of the Secretion-inhibiting Action on Perfused Rat Stomach
In table A below, the influence of the compounds according to the invention after intravenous administration is shown on the acid secretion of the perfused rat stomach stimulated by pentagastrin.
The abdomen of anesthetized rats (CD rats, female, 200–250 g; 1.5 g/kg of i.m. urethane) was opened after tracheotomy by a median upper abdominal incision and a PVC catheter was fixed transorally in the esophagus and a further one via the pylorus such that the ends of the tubing just still projected into the gastric lumen. The catheter leading from the pylorus led outwards via a side opening in the right abdominal wall.
After thorough rinsing (about 50–100 ml), a continuous flow of warm physiological NaCl solution (0.5 ml/min, pH 6.8–6.9; Braun-Unita I) was continuously passed through the stomach at 37° C. The pH in the effluent, in each case collected at an interval of 15 minutes, was determined (pH meter 632, glass electrode EA 147; φ 5 mm, Metrohm) and the secreted HCl was determined by titration with a freshly prepared 0.01N NaOH solution to pH 7 (Dosimat 665 Metrohm).
Gastric secretion was stimulated by continuous infusion of 1 μg/kg (=1.65 ml/h) of i.v. pentagastrin (left femoral vein) about 30 min after the end of the operation (i.e. after determination of 2 preliminary fractions). The substances to be tested were administered intravenously in 1 ml/kg of fluid volume 60 min after the start of the pentagastrin continuous infusion.
The body temperature of the animals was kept at a constant 37.8–38° C. by means of infrared irradiation and heating pads (automatic, step-free control via a rectal temperature sensor).

Row | SMILES | inhibition at 3 µmol/kg
1 | COCCO[C@H]1c2ccn3c(C)c(C)nc3c2N[C@H](c2ccccc2)[C@H]1OC(C)=O [Example 1, (7S,8R,9R)-8-Acetoxy-7-(2-methoxyethoxy)-2,3-dimethyl-9-phenyl-7,8,9,10-tetra-hydroimidazo[1,2-h][1,7]naphthyridine] | 100%
2 | CO[C@@H]1c2ccn3c(C)c(C)nc3c2N[C@H](c2ccccc2)[C@H]1OC(C)=O [Example 3, (7R,8R,9R)-8-Acetoxy-7-methoxy-2,3-dimethyl-9-phenyl-7,8,9,10-tetrahydro-imidazo[1,2-h][1,7]naphthyridine] | 100%

Same assay, conditions: anesthetized CD rats, female, dose 3 μmol/kg i.v.

Row | SMILES | Inhibition of acid secretion (%)
3 | COCCO[C@@H]1c2ccn3c(C)c(C)nc3c2N[C@H](c2ccccc2)[C@H]1OC(C)=O [Example 2, (7R,8R,9R)-8-Acetoxy-7-(2-methoxyethoxy)-2,3-dimethyl-9-phenyl-7,8,9,1,0-tetra-hydroimidazo[1,2-h][1,7]naphthyridine] | 100%

Tested on: not given
Experiment: not given
Details: not given

Row | SMILES | melting point
4 | CO[C@@H]1c2ccn3c(C)c(C)nc3c2N[C@H](c2ccccc2)[C@H]1OC(C)=O [Example 3, (7R,8R,9R)-8-Acetoxy-7-methoxy-2,3-dimethyl-9-phenyl-7,8,9,10-tetrahydro-imidazo[1,2-h][1,7]naphthyridine] | 197 to 199 °C
5 | CCO[C@@H]1c2ccn3c(C)c(C)nc3c2N[C@H](c2ccccc2)[C@H]1OC(C)=O [Example 4, (7R,8R,9R)8-Acetoxy-7-ethoxy-2,3-dimethyl-9-phenyl-7,8,9,10-tetrahydroimidazo-[1,2-h][1,7]naphthyridine] | 182 to 184 °C
6 | CCN(CC)C(=O)O[C@@H]1[C@@H](c2ccccc2)Nc2c(ccn3c(C)c(C)nc23)[C@@H]1OCCOC [Example 22, (7S,8R,9R)-7-(2-Methoxyethoxy)-8-(N,N-diethylaminocarbonyloxy)-2,3-dimethyl-9-phenyl-7,8,9,10-tetrahydroimidazo[1,2-h][1,7]naphthyridine] | 50 to 52 °C
7 | COCCO[C@@H]1c2ccn3c(C)c(C)nc3c2N[C@H](c2ccccc2)[C@H]1OC(=O)OC1CC(C)CCC1C(C)C (stereo partly drawn) [Example 26, (7R,8R,9R)-8-[(+)-Menthyloxycarbonyloxy]-7-(2-methoxyethoxy)-2,3-dimethyl-9-phenyl-7,8,9,10-tetrahydroimidazo[1,2-h][1,7]naphthyridine] | 127 to 129 °C
8 | COCCO[C@H]1c2ccn3c(C)c(C)nc3c2N[C@H](c2ccccc2)[C@H]1OC(=O)OC1CC(C)CCC1C(C)C (stereo partly drawn) [Example 27, (7S,8R,9R)-8-[(+)-Menthyloxycarbonyloxy]-7-(2-methoxyethoxy)-2,3-dimethyl-9-phenyl-7,8,9,10-tetrahydroimidazo[1,2-h][1,7]naphthyridine] | 63 to 65 °C
9 | COCC(=O)O[C@@H]1[C@@H](c2ccccc2)Nc2c(ccn3c(C)c(C)nc23)[C@@H]1OC [Example 40, (7S,8R,9R)-2,3-Dimethyl-7-methoxy-8-methoxyacetyloxy-9-phenyl-7,8,9,10-tetrahydroimidazo[1,2-h][1,7]naphthyridine] | 73 to 75 °C
10 | CCN(CC)C(=O)O[C@@H]1[C@@H](c2ccccc2)Nc2c(ccn3c(C)c(C)nc23)[C@H]1OC [Example 41, (7R,8R,9R)8-(N,N-Diethylaminocarbonyloxy)-2,3-dimethyl-7-methoxy-9-phenyl 7,8,9,10-tetrahydroimidazo[1,2-h][1,7]naphthyridine] | 123 to 124 °C
11 | CCN(CC)C(=O)O[C@@H]1[C@@H](c2ccccc2)Nc2c(ccn3c(C)c(C)nc23)[C@@H]1OC [Example 42, (7S,8R,9R)8-(N,N-Diethylaminocarbonyloxy)-2,3-dimethyl-7-methoxy-9-phenyl 7,8,9,10-tetrahydroimidazo[1,2-h][1,7]naphthyridine] | 97 to 98 °C
12 | COC(=O)O[C@@H]1[C@@H](c2ccccc2)Nc2c(ccn3c(C)c(C)nc23)[C@H]1OC [Example 43, (7R,8R,9R)7-Methoxy-8-methoxycarbonyloxy-2,3-dimethyl-9-phenyl 7,8,9,10-tetrahydroimidazo[1,2-h][1,7]naphthyridine] | 178 to 179 °C
13 | COC(=O)O[C@@H]1[C@@H](c2ccccc2)Nc2c(ccn3c(C)c(C)nc23)[C@@H]1OC [Example 44, (7S,8R,9R)7-Methoxy-8-methoxycarbonyloxy-2,3-dimethyl-9-phenyl 7,8,9,10-tetrahydroimidazo[1,2-h][1,7]naphthyridine] | 90 to 91 °C
14 | CO[C@@H]1c2ccn3c(C)c(C)nc3c2N[C@H](c2ccccc2)[C@H]1OC=O [Example 45, (7R,8R,9R)-2,3-Dimethyl-8-formyloxy-7-methoxy-9-phenyl-7,8,9,10-tetrahydro-imidazo[1,2-h][1,7]naphthyridine] | 152 to 153 °C

Continued, values first:

Row | melting point | SMILES
15 | 106 to 107 °C | CCC(=O)O[C@@H]1[C@@H](c2ccccc2)Nc2c(ccn3c(C)c(C)nc23)[C@H]1OCCOC [Example 5, (7R,8R,9R)-7-(2-Methoxyethoxy)-2,3-dimethyl-9-phenyl-8-propionyloxy-7,8,9,10-tetrahydroimidazo[1,2-h][1,7]naphthyridine]
16 | 78 to 80 °C | COCCO[C@H]1c2ccn3c(C)c(C)nc3c2N[C@H](c2ccccc2)[C@H]1OC(=O)c1ccccc1 [Example 7, (7S,8R,9R)-8-Benzoyloxy-7-(2-methoxyethoxy)-2,3-dimethyl-9-phenyl-7,8,9,10tetrahydroimidazo[1,2-h][1,7]naphthyridine]
17 | 176 to 177 °C | COCCO[C@@H]1c2ccn3c(C)c(C)nc3c2N[C@H](c2ccccc2)[C@H]1OC(=O)OC [Example 8, (7R,8R,9R)-8-Methoxycarbonyloxy-7-(2-methoxyethoxy)-2,3-dimethyl-9-phenyl-7,8,9,10-tetrahydroimidazo[1,2-h][1,7]naphthyridine]
18 | 82 to 84 °C | CO[C@@H]1c2ccn3c(C)c(C)nc3c2N[C@H](c2ccccc2)[C@H]1OC(=O)c1ccccc1 [Example 10, (7R,8R,9R)-8-Benzoyloxy-7-methoxy-2,3-dimethyl-9-phenyl-7,8,9,10-tetrahydro-imidazo[1,2-h][1,7]naphthyridine]
19 | 78 to 80 °C | CO[C@H]1c2ccn3c(C)c(C)nc3c2N[C@H](c2ccccc2)[C@H]1OC(=O)c1ccccc1 [Example 11, (7S,8R,9R)-8-Benzoyloxy-7-methoxy-2,3-dimethyl-9-phenyl-7,8,9,10-tetrahydro-imidazo[1,2-h][1,7]naphthyridine]
20 | 133 to 134 °C | COCCO[C@@H]1c2ccn3c(C)c(C)nc3c2N[C@H](c2ccccc2)[C@H]1OC(=O)c1ccc([N+](=O)[O-])cc1 [Example 12, (7R,8R,9R)-7-(2-Methoxyethoxy)-2,3-dimethyl-8-(4-nitrobenzoyloxy)-9-phenyl-7,8,9,10-tetrahydroimidazo[1,2-h][1,7]naphthyridine]
21 | 80 to 84 °C | CO[C@@H]1c2ccn3c(C)c(C)nc3c2N[C@H](c2ccccc2)[C@H]1OC(=O)c1cccc([N+](=O)[O-])c1 [Example 17, (7R,8R,9R)-7-Methoxy-2,3-dimethyl-8-(3-nitrobenzoyloxy)-9-phenyl-7,8,9,10-tetra-hydroimidazo[1,2-h][1,7]naphthyridine]
22 | 82 to 83 °C | COCCO[C@H]1c2ccn3c(C)c(C)nc3c2N[C@H](c2ccccc2)[C@H]1OC(=O)c1ccc(OC)cc1 [Example 18, (7S,8R,9R)-7-(2-Methoxyethoxy)-2,3-dimethyl-8-(4-methoxybenzoyloxy)-9-phenyl-7,8,9,10-tetrahydroimidazo[1,2-h][1,7]naphthyridine]
23 | 150 to 151 °C | COCCO[C@@H]1c2ccn3c(C)c(C)nc3c2N[C@H](c2ccccc2)[C@H]1OC(=O)c1ccc(OC)cc1 [Example 19, (7R,8R,9R)-7-(2-Methoxyethoxy)-2,3-dimethyl-8-(4-methoxybenzoyloxy)-9-phenyl-7,8,9,10-tetrahydroimidazo[1,2-h][1,7]naphthyridine]
24 | 114 to 115 °C | COCCO[C@@H]1c2ccn3c(C)c(C)nc3c2N[C@H](c2ccccc2)[C@H]1OC(=O)CN(C)C [Example 20, (7R,8R,9R)-7-(2-Methoxyethoxy)-2,3-dimethyl-8-(N,N-dimethylaminomethyl-carbonyloxy)-9-phenyl-7,8,9,10-tetrahydroimidazo[1,2-h][1,7]naphthyridine]
25 | 206 to 207 °C | COCCO[C@H]1c2ccn3c(C)c(C)nc3c2N[C@H](c2ccccc2)[C@H]1OC(=O)CN(C)C [Example 21, (7S,8R,9R)-7-(2-Methoxyethoxy)-2,3-dimethyl-8-(N,N-dimethylaminomethyl-carbonyloxy)-9-phenyl-7,8,9,10-tetrahydroimidazo[1,2-h][1,7]naphthyridine]
26 | 92 to 93 °C | CO[C@@H]1c2ccn3c(C)c(C)nc3c2N[C@H](c2ccccc2)[C@H]1OC(=O)c1ccccc1 [Example 47, (7R,8R,9R)-8-Benzoyloxy-2,3-dimethyl-7-methoxy-9-phenyl-7,8,9,10-tetrahydro-imidazo[1,2-h][1,7]naphthyridine]
